For the assay, the system named is Mus musculus. Nature of the assay: Antihypoxic activity in fasted Kunming mouse assessed as survival time of mouse under hypoxic condition at 80 mg/kg administered for 5 days (reference value: 2199 +/-217 secs). Type of assay: functional.

As to `CCCN(c1nnc(S(N)(=O)=O)s1)S(=O)(=O)c1ccccc1`, the Time was 3135 s.
Next, `Cc1ccc(S(=O)(=O)N(Cc2ccccc2)c2nnc(S(N)(=O)=O)s2)cc1`: 2582 s.
Turning to `Cc1ccc(S(=O)(=O)N(c2nnc(S(N)(=O)=O)s2)C(C)C)cc1`, the Time was determined as 2426 s.
Next, `Cc1ccc(S(=O)(=O)N(CC(C)C)c2nnc(S(N)(=O)=O)s2)cc1`: 3486 s.
Next, `Cc1ccc(S(=O)(=O)N(CCc2ccccc2)c2nnc(S(N)(=O)=O)s2)cc1`: 2441 s; `Cc1ccc(CN(c2nnc(S(N)(=O)=O)s2)S(=O)(=O)c2ccc(C)cc2)cc1`: 2512 s.
Take `Cc1ccc(S(=O)(=O)N(Cc2ccc(F)cc2)c2nnc(S(N)(=O)=O)s2)cc1`: the Time came to 2860 s.
The same measure for `CCN(c1nnc(S(N)(=O)=O)s1)S(=O)(=O)c1ccccc1`: 2716 s; for `CCCCN(c1nnc(S(N)(=O)=O)s1)S(=O)(=O)c1ccccc1`: 2977 s; for `CCCCCN(c1nnc(S(N)(=O)=O)s1)S(=O)(=O)c1ccccc1`: 2716 s.
`CC(=O)Nc1nnc(S(N)(=O)=O)s1` [ACETAZOLAMIDE]: the Time came out at 2726 s.

Source of the values: ChEMBL document CHEMBL1781877, “Synthesis and evaluation of new carbonic anhydrase inhibitors” (2011).
